Assays:
[1] = system: brown stink bug (Euschistus heros); assay: Field trial on soybean plots against brown stink bug, kill efficiency of the nymphs; type: in vivo; settings: nymphs on soybean cv. BRS232, 14 days after spray treatment; application rate g a.i./ha: imidacloprid 72, (I-2) 24, mixture 72 + 24, methamidophos 480; tank mix with 0.1% a.i. methylated soya oil
Source text: (§1) The expected activity for a given combination of two active substances can be calculated as described by S. R. Colby, Weeds 15 (1967), 20-22, as follows:
(§2) If the actual insecticidal kill efficiency is greater than calculated, then the combination is superadditive in its kill efficiency, i.e. a synergistic effect is present. In this case, the kill efficiency actually observed must be greater than the value for the expected kill efficiency (E) calculated with the abovementioned formula.
(§3) After the desired period of time, the kill efficiency is determined in %. Here, 100% means that all animals have been killed; 0% means that no animals have been killed.
Methamidophos (SL 600) was tested concomitantly as commercially available standard. The water application rate is 200 l/ha.

[2] = system: red-banded stink bug (Piezodorus guildinii); assay: Caged soybean plot trial against red-banded stink bug, kill efficiency of the adults; type: in vivo; settings: application rate g a.i./ha: imidacloprid 70, (I-2) 24, mixture 72 + 24, methamidophos 480, tank mix with 0.1% a.i. methylated soya oil; for Kill efficiency as calculated by Abbott (%) 1 d: adults on soybean cv. CO-32, 1 day after spray treatment; for Kill efficiency as calculated by Abbott (%) 3 d: adults on soybean cv. CO-32, 3 days after spray treatment
Source text: as §1, §2, §3
Plots approximately 1 m^2 in size, provided with cages and planted with soybean plants (Glycine max) cv. “CO-32” are treated in four replications against the red-banded stink bug (Piezodorus guildinii) using a pneumatically operated backpack sprayer. A mixture of the active substance (I-2) and imidacloprid (SC 480) is applied in comparison with the active substance (I-2) (SC 240) on its own and imidacloprid (SC 200) on its own at the application rates specified, as a tank mix with 0.1% a.i. methylated soya oil (EC 850). Methamidophos (SL 600) was tested concomitantly as commercially available standard. The water application rate is 300 l/ha. The evaluation is performed 1 and 3 days after the treatment by determining the kill efficiency of the adults.

| Compound | Kill efficiency as calculated by Abbott (%) 14 d [1] [%] | Kill efficiency as calculated by Abbott (%) 1 d [2] [%] | Kill efficiency as calculated by Abbott (%) 3 d [2] [%] |
| --- | --- | --- | --- |
| O=[N+]([O-])/N=C1\NCCN1Cc1ccc(Cl)nc1 [Imidacloprid, imidacloprid] | 21 | 65 | 65 |
| COP(N)(=O)SC (stereo not drawn) [Methamidophos] | 27 | 52.5 | 87.5 |

From patent US8691863B2, “Use of active substance combinations having insecticidal properties for controlling animal pests from the stink bug family” (Bayer CropScience AG, priority 2007, dated 2014)
